# Source: patent publication US12545680B2, “Substituted oxaspiro[4.5]decanes as mor receptor agonists” (SHANGHAI HAIYAN PHARMACEUTICAL TECHNOLOGY CO., LTD., priority 2020, dated 2026)
# Like-named read-outs stand apart in the source and are kept apart here.
# Key:
# MOR receptor (OPRM1) [1] = molecular target: T1, MOR receptor (OPRM1) (Homo sapiens, UniProt P35372); assay: HTRF-cAMP cell experiment; settings: for cAMP Emax (%) Morphine was 100% / EC50: PathHunter CHO-K1 OPRM1 β-Arrestin cell line; for cAMP Emax (%) Morphine was 100% / Emax: maximum effect relative to morphine = 100%; for EC50: NKH477-stimulated cAMP, HTRF; for Emax: read-out: cAMP Emax (%) Morphine was 100%, PathHunter CHO-K1 OPRM1 β-Arrestin cell line
# T1 sequence (P35372 whole entry): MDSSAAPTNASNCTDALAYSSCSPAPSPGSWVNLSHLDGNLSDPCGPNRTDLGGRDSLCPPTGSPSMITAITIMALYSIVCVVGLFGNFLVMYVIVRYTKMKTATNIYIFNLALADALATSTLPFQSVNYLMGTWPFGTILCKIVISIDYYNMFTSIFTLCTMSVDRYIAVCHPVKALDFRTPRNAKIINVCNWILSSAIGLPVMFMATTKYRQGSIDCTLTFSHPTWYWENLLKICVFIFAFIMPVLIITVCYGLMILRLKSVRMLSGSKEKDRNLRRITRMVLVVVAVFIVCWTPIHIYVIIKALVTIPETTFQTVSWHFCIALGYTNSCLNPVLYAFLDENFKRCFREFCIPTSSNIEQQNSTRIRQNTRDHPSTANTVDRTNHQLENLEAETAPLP
# MOR receptor (OPRM1) [2] = molecular target: T1, MOR receptor (OPRM1); assay: β-Arrestin cell experiment; settings: maximum effect relative to morphine = 100%; for β-arrestin Emax (%) Morphine was 100%: PathHunter CHO-K1 OPRM1 β-Arrestin cell line; for Emax: read-out: β-arrestin Emax (%) Morphine was 100%, PathHunter CHO-K1 OPRM1 β-Arrestin cell line
SMILES,cAMP Emax (%) Morphine was 100% (MOR receptor (OPRM1) [1]) [%],EC50 (MOR receptor (OPRM1) [1]; cAMP EC50 (nM)) [nM],β-arrestin Emax (%) Morphine was 100% (MOR receptor (OPRM1) [2]) [%],Emax (MOR receptor (OPRM1) [2]) [%],EC50 (MOR receptor (OPRM1) [1]; read-out: cAMP EC50) [nM],Emax (MOR receptor (OPRM1) [1]) [%]
"CCC1CC(NCC[C@@]2(c3ccccn3)CCOC3(CCCC3)C2)c2ccnn21 (mixture of isomers) [Compound H-4-1, 6-ethyl-N-(2-((R)-9-(pyridin-2-yl)-6-oxaspiro[4.5]decan-9-yl)ethyl)-5,6-dihydro-4H-pyrrolo[1,2-b]pyrazol-4-amine]",64.1,8,1.8,–,–,–
"CCC1CC(NCC[C@@]2(c3ccccn3)CCOC3(CCCC3)C2)c2ccnn21 (mixture of isomers) [Compound H-4-2, 6-ethyl-N-(2-((R)-9-(pyridin-2-yl)-6-oxaspiro[4.5]decan-9-yl)ethyl)-5,6-dihydro-4H-pyrrolo[1,2-b]pyrazol-4-amine]",91.8,18,4.8,–,–,–
"CC1CC(NCC[C@@]2(c3ccccn3)CCOC3(CCCC3)C2)c2ccnn21 (mixture of isomers) [Compound H-12-1, 6-methyl-N-(2-((R)-9-(pyridin-2-yl)-6-oxaspiro[4.5]decan-9-yl)ethyl)-5,6-dihydro-4H-pyrrolo[1,2-b]pyrazol-4-amine]",99.5,12,–,12,–,–
"CC1CC(NCC[C@@]2(c3ccccn3)CCOC3(CCCC3)C2)c2ccnn21 (mixture of isomers) [Compound H-12-2, 6-methyl-N-(2-((R)-9-(pyridin-2-yl)-6-oxaspiro[4.5]decan-9-yl)ethyl)-5,6-dihydro-4H-pyrrolo[1,2-b]pyrazol-4-amine]",77.8,–,15.7,–,12,–
"c1ccc([C@]2(CCNC3CCn4nccc43)CCOC3(CCCC3)C2)nc1 (stereo partly drawn) [Compound H-1, N-(2-((R)-9-(pyridin-2-yl)-6-oxaspiro[4.5]decan-9-yl)ethyl)-5,6-dihydro-4H-pyrrolo[1,2-b]pyrazol-4-amine]",–,49,–,29.7,–,125
"COC(C)(C)C1CC(NCC[C@@]2(c3ccccn3)CCOC3(CCCC3)C2)c2ccnn21 (stereo partly drawn) [Compound H-2, 6-(2-methoxypropan-2-yl)-N-(2-((R)-9-(pyridin-2-yl)-6-oxaspiro[4.5]decan-9-yl)ethyl)-5,6-dihydro-4H-pyrrolo[1,2-b]pyrazol-4-amine]",–,47,–,6.2,–,93.2
"c1ccc([C@]2(CCNC3CC(C4CC4)n4nccc43)CCOC3(CCCC3)C2)nc1 (stereo partly drawn) [Compound H-3, 6-cyclopropyl-N-(2-((R)-9-(pyridin-2-yl)-6-oxaspiro[4.5]decan-9-yl)ethyl)-5,6-dihydro-4H-pyrrolo[1,2-b]pyrazol-4-amine]",–,17,–,4.9,–,74.6
"c1ccc([C@]2(CCNC3CC(C4CCCC4)n4nccc43)CCOC3(CCCC3)C2)nc1 (stereo partly drawn) [Compound H-5, 6-cyclopentyl-N-(2-((R)-9-(pyridin-2-yl)-6-oxaspiro[4.5]decan-9-yl)ethyl)-5,6-dihydro-4H-pyrrolo[1,2-b]pyrazol-4-amine]",–,–,–,4.8,–,–
"CC(C)(C)C1CC(NCC[C@@]2(c3ccccn3)CCOC3(CCCC3)C2)c2ccnn21 (stereo partly drawn) [Compound H-6, 6-tert-butyl-N-(2-((R)-9-(pyridin-2-yl)-6-oxaspiro[4.5]decan-9-yl)ethyl)-5,6-dihydro-4H-pyrrolo[1,2-b]pyrazol-4-amine]",–,9,–,15.3,–,99.6
"CC(C)(F)C1CC(NCC[C@@]2(c3ccccn3)CCOC3(CCCC3)C2)c2ccnn21 (stereo partly drawn) [Compound H-7, 6-(2-fluoropropan-2-yl)-N-(2-((R)-9-(pyridin-2-yl)-6-oxaspiro[4.5]decan-9-yl)ethyl)-5,6-dihydro-4H-pyrrolo[1,2-b]pyrazol-4-amine]",–,29,–,22.1,–,105
"CC(C)C1CC(NCC[C@@]2(c3ccccn3)CCOC3(CCCC3)C2)c2c(F)cnn21 (stereo partly drawn) [Compound H-9, 3-fluoro-6-isopropyl-N-(2-((R)-9-(pyridin-2-yl)-6-oxaspiro[4.5]decan-9-yl)ethyl)-5,6-dihydro-4H-pyrrolo[1,2-b]pyrazol-4-amine]",–,–,–,1,–,–
"CC1(C2CC(NCC[C@@]3(c4ccccn4)CCOC4(CCCC4)C3)c3ccnn32)CC1 (stereo partly drawn) [Compound H-10, 6-(1-methylcyclopropyl)-N-(2-((R)-9-(pyridin-2-yl)-6-oxaspiro[4.5]decan-9-yl)ethyl)-5,6-dihydro-4H-pyrrolo[1,2-b]pyrazol-4-amine]",–,11,–,5.1,–,74.7
"CC(C)C1CC(NCC[C@@]2(c3ccccn3)CCOC3(CCCC3)C2)c2ccnn21 (stereo partly drawn) [Compound H-11, 6-(isopropyl)-N-(2-((R)-9-(pyridin-2-yl)-6-oxaspiro[4.5]decan-9-yl)ethyl)-5,6-dihydro-4H-pyrrolo[1,2-b]pyrazol-4-amine]",–,15,–,4.3,–,84.8
"CCCC1CC(NCC[C@@]2(c3ccccn3)CCOC3(CCCC3)C2)c2ccnn21 (stereo partly drawn) [Compound H-14, 6-propyl-N-(2-((R)-9-(pyridin-2-yl)-6-oxaspiro[4.5]decan-9-yl)ethyl)-5,6-dihydro-4H-pyrrolo[1,2-b]pyrazol-4-amine]",–,31,–,7.2,–,73
"CCC(C)C1CC(NCC[C@@]2(c3ccccn3)CCOC3(CCCC3)C2)c2ccnn21 (stereo partly drawn) [Compound H-15, 6-(sec-butyl)-N-(2-((R)-9-(pyridin-2-yl)-6-oxaspiro[4.5]decan-9-yl)ethyl)-5,6-dihydro-4H-pyrrolo[1,2-b]pyrazol-4-amine]",–,84,–,–,–,64.9
"FC(F)(F)C1(C2CC(NCC[C@@]3(c4ccccn4)CCOC4(CCCC4)C3)c3ccnn32)CC1 (stereo partly drawn) [Compound H-17, N-(2-((R)-9-(pyridin-2-yl)-6-oxaspiro[4.5]decan-9-yl)ethyl)-6-(1-(trifluoromethyl)cyclopropyl)-5,6-dihydro-4H-pyrrolo[1,2-b]pyrazol-4-amine]",–,31,–,2.6,–,68.6
"CC(C)(C1CC(NCC[C@@]2(c3ccccn3)CCOC3(CCCC3)C2)c2ccnn21)C(F)(F)F (stereo partly drawn) [Compound H-18, N-(2-((R)-9-(pyridin-2-yl)-6-oxaspiro[4.5]decan-9-yl)ethyl)-6-(1,1,1,-trifluoro-2-methylprop-2-yl)-5,6-dihydro-4H-pyrrolo[1,2-b]pyrazol-4-amine]",89.1,–,–,–,68,–
"c1ccc([C@]2(CCNC3CC4(CCCC4)n4nccc43)CCOC3(CCCC3)C2)nc1 (stereo partly drawn) [Compound H-19, N-(2-((R)-9-(pyridin-2-yl)-6-oxaspiro[4.5]decan-9-yl)ethyl)-4′,5′-dihydrospiro[cyclopentane-1,6′-pyrrolo[1,2-b]pyrazol]-4′-amine]",–,21,–,17.3,–,94.1
"c1ccc([C@]2(CCNC3CC4(CCOCC4)n4nccc43)CCOC3(CCCC3)C2)nc1 (stereo partly drawn) [Compound H-20, N-(2-((R)-9-(pyridin-2-yl)-6-oxaspiro[4.5]decan-9-yl)ethyl)-2,3,4′,5,5′,6-hexahydrospiro[pyran-4,6′-pyrrolo[1,2-b]pyrazol]-4′-amine]",–,4,–,–,–,107
"c1ccc([C@]2(CCNC3CC4(CCC4)n4nccc43)CCOC3(CCCC3)C2)nc1 (stereo partly drawn) [Compound H-21, N-(2-((R)-9-(pyridin-2-yl)-6-oxaspiro[4.5]decan-9-yl)ethyl)-4′,5′-dihydrospiro[cyclobutane-1,6′-pyrrolo[1,2-b]pyrazol]-4′-amine]",–,22,–,8,–,70.8
"CC1(C)CC(NCC[C@@]2(c3ccccn3)CCOC3(CCCC3)C2)c2ccnn21 (stereo partly drawn) [Compound H-22, 6,6-dimethyl-N-(2-((R)-9-(pyridin-2-yl)-6-oxaspiro[4.5]decan-9-yl)ethyl)-5,6-dihydro-4H-pyrrolo[1,2-b]pyrazol-4-amine]",–,11,–,39.9,–,104
